We go through two compounds from patent publication US12005123B2, “Conjugate of isotretinoin and peptide” (CAREGEN CO., LTD., priority 2017, dated 2024).

For data set [1] the following is noted: cited from earlier work.
The nature of data set [2]: Solubility test in distilled water. Type of data set: physicochemical. Particulars: 10 mg/ml, FIG. 1.
The conditions of data set [3]: background statement; cited from earlier work.

Molecules are shown by their SMILES. Read-outs that look alike come from different tables or passages of the source.

Turning to `CC1=C(/C=C/C(C)=C/C=C/C(C)=C/C(=O)O)C(C)(C)CCC1=O` [4-oxo-isotretinoin], the “blood concentration of active metabolite versus isotretinoin” value in data set [1] (6 hours after administration) is given as “higher than the blood concentration of isotretinoin”.
On to `CC1=C(/C=C/C(C)=C/C=C/C(C)=C\C(=O)O)C(C)(C)CCC1` [isotretinoin, 13-cis-retinoic acid], for which the solubility in water entry in data set [2] is “hardly dissolved in water”; in data set [3], “low”. In addition, the fasting bioavailability result in data set [1] (fasting) is given as “about 20%”. For the same compound, in data set [1] (oral administration), the “time to reach the highest blood concentration” value is 2 to 4 h.
